In patent publication US10933135B2, “Methods for the treatment of cardiac hypertrophy” (UNIVERSITY OF CINCINNATI, priority 2016, dated 2021):
Where “and” joins values, the source holds several entries; their conditions need not be identical. Identical values can stand only once. Entries after “also recorded” stand apart in the source; their conditions may differ.

Tests used:
NFAT = assay: NFAT-luciferase reporter assay in NRVMs; format: cell-based, rat; details: for effect on basal NFAT activity: inhibitor at its IC50, without PE; for NFAT reporter activity, fold vs. vehicle control: 24 hours
Experimental: NRVMs were transfected with 75 ng per well (in a 96-well plate) of NFAT-luciferase reporter plasmid acquired from AddGene (51941) (B. J. Wilkins et al., Calcineurin/NFAT coupling participates in pathological, but not physiological, cardiac hypertrophy, Circ. Res. 94 (2004) 110-118. doi:10.1161/01.RES.0000109415.17511.18, the entire disclosure of which is incorporated herein by this citation). 48 hours after transfection, cells were treated with 10 μM PE for 24 hours to induce NFAT reporter activity. To quantify luciferase reporter expression, cells were rinsed with sterile PBS and then lysed with 50 μL Cell Lysis Buffer (Promega) for 5 min at room temperature, followed by addition of 100 μL luciferase assay reagent (Promega); luminescence was read immediately on the BioTek Cytation 3 image reader. HuR inhibitors were previously identified by Wu et. al. (X. Wu et al., Identification and Validation of Novel Small Molecule Disruptors of HuR-mRNA Interaction, ACS Chem. Biol. (2015) 150317154550000-9. doi:10.1021/cb500851u. the entire disclosure of which is incorporated herein by this citation), and used here as described.

HuR-RNA binding = HuR-RNA binding (Homo sapiens, UniProt Q15717); assay: Plasmonic nanoparticle LSPR assay of HuR-RNA binding; details: gold nanoparticle arrays, target RNA SEQ ID NO 7, recombinant HuR protein
Sequence of HuR-RNA binding (Q15717 whole entry): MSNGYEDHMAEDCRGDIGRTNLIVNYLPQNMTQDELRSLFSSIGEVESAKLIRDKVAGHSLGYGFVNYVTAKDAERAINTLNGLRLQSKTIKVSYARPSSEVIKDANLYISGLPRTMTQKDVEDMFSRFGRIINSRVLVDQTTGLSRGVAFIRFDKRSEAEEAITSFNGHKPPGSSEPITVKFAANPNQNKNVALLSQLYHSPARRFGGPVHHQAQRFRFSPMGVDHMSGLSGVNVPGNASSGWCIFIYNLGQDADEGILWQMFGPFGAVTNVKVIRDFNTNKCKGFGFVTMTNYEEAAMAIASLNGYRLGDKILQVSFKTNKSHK
Experimental: As shown schematically in FIG. 9A-B, a pattern for either microfluidic channels or a spot plate is first made on the substrate using photolithography. Next, the hole mask procedure is carried out on top of the patterned photoresist to make the desired nanoparticle array. Briefly, this procedure involves spin coating a layer of poly(methylmethacrylate) (PMMA) followed by a layer of poly(diallyldimethylammonium chloride) (PDDA). Next, polystyrene spheres of a desired size are drop-coated onto the top of the polymer layers and a layer of 5 nm of gold is deposited over the whole assembly. After removal of the polystyrene spheres by tape-stripping, the masks are subjected to oxygen plasma etching to generate holes the same size as the polystyrene spheres. Metals are then deposited into these holes and in the last step, both the PMMA/PDDA polymer mask and the photoresist are removed using acetone, to create nanoparticle arrays in a desired pattern on the substrate. […] The PDMS layer was used to create the channels for the microfluidic devices and to prevent solution migration from spot to spot in the spot plates.
Next a target RNA strand containing a DNA hybridizing region, which binds via base pair matching with the ssDNA on the nanoparticle, and a hairpin loop containing a HuR target binding site. […] Last, the HuR protein is added and binds to its target site within the RNA hairpin loop. […]

[1] = test system: pressure overload (aortic constriction) mouse model of heart failure; assay: Aortic constriction (TAC) pressure overload mouse model of cardiac hypertrophy and heart failure; format: in vivo; details: TAC mice
Experimental: FIG. 7A-C. KH-3 reduces ventricular dilation and improves ejection fraction in a pressure overload (aortic constriction) mouse model of heart failure. Mice (N=10) were subjected to aortic constriction (TAC) to induce cardiac hypertrophy and heart failure. After week 4, they were randomized to receive either KH-3 (50 mg/kg 3×/week) or Vehicle (5 mice to each group). KH-3 is a small molecule inhibitor of HuR-mRNA interaction that is available from.
FIG. 8A-C. KH-3 reduces ventricular dilation and improves ejection fraction in a pressure overload (aortic constriction) mouse model of heart failure.

HuR = HuR nucleo-cytoplasmic translocation by immunostaining in NRVMs; format: cell-based, rat; details: for HuR cytoplasmic translocation, fluorescent intensity ratio: agonist alone (PE 10 μM or AngII 100 nM), within 15 minutes (printed 15 hr)
Description: All antibodies were made up in 0.6% BSA in PBS. For wheat germ agglutinin (WGA) staining, a Texas Red-X conjugate was used per manufacturer's instructions (ThermoFisher). […]

[2] = test system: neonatal rat ventricular myocytes (NRVMs); assay: Hypertrophic cell growth of NRVMs, cell area by WGA staining; format: cell-based; details: 10 μM PE for 24 hr, vs vehicle treated control cells
Description: Neonatal rat ventricular myocytes (NRVMs) were isolated using collagenase digestion and adhesion differential from fibroblasts as described ([…]. Moore-Morris, S. Lange, Isolation and culture of neonatal mouse cardiomyocytes, J Vis Exp. (2013) e50154-e50154. doi:10.3791/50154, the entire disclosure of which is incorporated herein by this citation). Briefly, Sprague Dawley neonatal rats (1-2 days old) (Taconic) were decapitated and the hearts were isolated. Following removal of the atria, the ventricles were cut into small pieces and digested first in 0.05% trypsin/EDTA (Corning) overnight, then in collagenase II (Gibco) for 30 minutes. Cells were then spun at 100×g followed by a 40 minute pre-plating process on non-treated plates to allow the fibroblasts to adhere. The non-adherent NRVMs were then transferred to cell culture-treated dishes in MEM alpha media (Gibco) with 10% FBS. […] All slides were imaged with the BioTek Cytation 3 image reader and quantitative assessment of HuR translocation was measured as the ratio of cytoplasmic to nuclear fluorescent intensity (adjusted for mean background fluorescence and integrated area) using ImageJ.

ANF = ANF (hypertrophic marker gene) expression by qRT-PCR in NRVMs; format: cell-based, rat; details: vehicle+PE, 24 hr
Experimental: (§1) RNA was isolated using a Macherey-Nagel NucleoSpin RNA kit and cDNA was synthesized using a BioScript All-in-One cDNA Synthesis SuperMix (Biotool). Samples were run on Stratagene Mx3005P (Agilent Technologies) using SYBR Green qPCR Master Mix (Biotool) to assess levels of GAPDH, ANF (atrial natriuretic factor), and RCAN1 (Regulator of Calcineurin 1). Results were analyzed using the ΔΔCt method (K. J. Livak, T. D. Schmittgen, Analysis of relative gene expression data using real-time quantitative PCR and the 2(-Delta Delta C(T)) Method, Methods. 25 (2001) 402-408. doi:10.1006/meth.2001.1262, the entire disclosure of which is incorporated herein by this citation). Primers are as listed: […]

RCAN1 = assay: Expression of the NFAT target gene RCAN1 by qRT-PCR in NRVMs; format: cell-based, rat; details: PE treated
Experimental: as §1

PKC = PKC substrate phosphorylation in NRVMs; format: cell-based, rat; details: data not shown
[3] = inhibitor at its IC50 simultaneously with PE
[4] = 50 mg/kg 3×/week from week 4, vs Vehicle

Q: What does the source list for `CCN(CC)C(=O)CC(c1cc(OC)c(OC)c(OC)c1)c1c(OC)cc(OC)c2c(-c3ccccc3)cc(=O)oc12` (centres unmarked) [CMLD-1]?
A: effect on basal NFAT activity (NFAT): no significant effect; NFAT reporter activity, fold vs. vehicle control (NFAT; [3]): 1.19±0.30 fold; leftward LSPR shift (disruption of HuR-RNA binding) (HuR-RNA binding): 10 nm

Q: Which results are given for `CC(C)(C)c1ccc(S(=O)(=O)Nc2ccc3sc(/C=C/C(=O)NO)cc3c2)cc1` [KH-3]?
A: cardiac hypertrophy as heart weight to body weight [1]: strong trend toward a reduction in cardiac hypertrophy; cardiac hypertrophy as heart weight to tibia length ratio [1]: strong trend toward a reduction in cardiac hypertrophy; left ventricle (LV) diameter [1, 4]: blunts further increases; left ventricle end diastolic volume (LV-EDV) [1, 4]: preventing further increases; left ventricle end systolic volume (LV-ESV) [1, 4]: preventing further increases; cardiac function as measured by ejection fraction ([1]; pressure overload-induced hypertrophy): strong trend toward improving cardiac function

Q: With “angiotensin II [AngII, angiotensin receptor AT1 agonist]” as the molecule, how does the “HuR cytoplasmic translocation, fluorescent intensity ratio” value (HuR; vehicle control 0.71±0.04) read?
A: 1.06±0.04

Q: What does the source list for `CNC[C@H](O)c1cccc(O)c1` [PE, phenylephrine]?
A: fold increase in cell area/size [2]: 1.29±0.08 fold and 1.39±0.07 fold; ANF expression fold-induction (ANF): 5.4±1.4 fold-induction; HuR translocation, ratio of cytoplasmic to total cell fluorescent intensity (HuR; 24 hr PE, vehicle control 0.71±0.04): 1.82±0.08; HuR cytoplasmic translocation, fluorescent intensity ratio (HuR; vehicle control 0.71±0.04): 1.05±0.06; RCAN1 expression fold-induction (RCAN1): 4.43±0.77 fold-induction; NFAT reporter activity, fold vs. vehicle control (NFAT; PE alone 10 μM): 5.02±0.98 fold

Q: What does the source list for `COc1ccc2c(c[n+](C)c3c4cc5c(cc4ccc23)OCO5)c1OC` [chelerythrine]?
A: effect on PE/AngII-mediated HuR translocation (HuR; PKC inhibitor 10 μM): had no effect on HuR translocation; also recorded: shows a trend to enhance HuR translocation; PKC substrate phosphorylation (PKC): a reduction of PKC substrate phosphorylation

Q: For `CCCCCCCCCCCCCC(=O)O[C@@H]1[C@@H](C)[C@@]2(O)[C@@H](C=C(CO)C[C@]3(O)C(=O)C(C)=C[C@@H]23)[C@@H]2C(C)(C)[C@]12OC(C)=O` [PMA], which “HuR translocation after direct PKC activation” value (HuR; 2 μM) is on record?
A: lack of HuR translocation

Q: Which “HuR translocation, fluorescent intensity ratio” value (HuR; p38 inhibitor (10 μM) + AngII) does the source give for `C[S+]([O-])c1ccc(-c2nc(-c3ccncc3)c(-c3ccc(F)cc3)[nH]2)cc1` (centres unmarked) [SB203580] here?
A: 0.76±0.07

Q: What about the “HuR translocation, fluorescent intensity ratio” value (HuR; p38 inhibitor (10 μM) + PE, PE alone 1.05±0.06) of the same molecule?
A: 0.68±0.08

Q: Which “effect on basal NFAT activity” value (NFAT) does the source give for `COc1ccc(C(CC(=O)N2CCCC2)c2c(OC)cc(OC)c3c(-c4ccccc4)cc(=O)oc23)cc1` (centres unmarked) [CMLD-2] here?
A: no significant effect

Q: And the “NFAT reporter activity, fold vs. vehicle control” value (NFAT; [3])?
A: 1.30±0.14 fold
